US7700593B2, “Imidazo- and triazolo-pyridine compounds and methods of use thereof” (Amgen Inc., priority 2006, dated 2010)
Read-outs that look alike come from different tables or passages of the source.

Assays:
THP1 cells = experiment: Lipopolysaccharide-activated THP1 cell TNF production assay; type: cell-based, human; conditions: LPS-induced TNF-α production in THP1 cells
How it was run: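 THP1 cells at 1E6/mL were stimulated with LPS (1 μg/mL prepared stock) alongside 3-fold serially diluted compound for 3 h at 37 °C. Secreted TNF-α was quantified by electrochemiluminescence sandwich immunoassay. Percent of DMSO control was fitted to a 4-parameter logistic equation.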

monocytes = experiment: Lipopolysaccharide-activated monocyte TNF production assay (LPS induced TNF release); type: cell-based, human; conditions: LPS induced TNF release from monocytes, read-out: LPS induced TNFa
How it was run: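 Adherent monocytes from human PBMCs were pretreated with compound 60 min, then stimulated with E. coli LPS (30 ng/mL stock added) for 4 h at 37 °C. Supernatant TNF-α measured by sandwich ELISA; concentration giving 50% TNF reduction derived by polynomial fit.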

p38α = p38α (Homo sapiens, UniProt Q16539); experiment: p38 in-vitro HTRF enzyme assay; type: biochemical; conditions: IC50 value ranges
Sequence of p38α (Q16539 whole entry): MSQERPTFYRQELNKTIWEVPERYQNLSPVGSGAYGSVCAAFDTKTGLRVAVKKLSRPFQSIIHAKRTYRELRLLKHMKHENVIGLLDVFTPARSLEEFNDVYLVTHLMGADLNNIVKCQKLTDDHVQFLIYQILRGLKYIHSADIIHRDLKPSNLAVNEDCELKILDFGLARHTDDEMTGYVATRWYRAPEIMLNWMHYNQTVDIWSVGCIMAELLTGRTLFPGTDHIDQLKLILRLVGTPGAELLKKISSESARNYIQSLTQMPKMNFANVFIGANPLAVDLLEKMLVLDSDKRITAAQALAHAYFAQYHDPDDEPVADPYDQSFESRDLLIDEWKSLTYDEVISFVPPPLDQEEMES
How it was run: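 Activated recombinant human p38α with ATP and 100 nM GST-ATF2-Avitag, 1 h at RT in Tris pH 7.5/MgCl2 buffer; compound 10-point 3-fold series from about 1 μM final. HTRF 665/620 nm ratio; IC50 from 4-parameter fit, Ki via Cheng-Prusoff with experimental ATP Km.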

Compound | IC50 (THP1 cells; Homo sapiens, THP-1) [nM] | IC50 (monocytes; Homo sapiens, Monocyte) [nM] | IC50 (p38α) [nM] | IC50 (THP1 cells; read-out: THP-1 cell assay) [nM] | IC50 (monocytes) [nM]
Cc1c(F)cc(C(=O)NC2CC2)cc1-c1ccn2c(-c3c(Cl)cccc3Cl)nnc2c1 [Example 59, N-cyclopropyl-3-(3-(2,6-dichlorophenyl)[1,2,4]triazolo[4,3-a]pyridin-7-yl)-5-fluoro-4-methylbenzamide] | < 25 | < 25 | < 25 | – | –
Cc1ncoc1-c1nnc2cc(-c3cc(C(=O)NC4CC4)cc(F)c3C)ccn12 [Example 60, N-cyclopropyl-3-fluoro-4-methyl-5-(3-(4-methyl-1,3-oxazol-5-yl)[1,2,4]triazolo[4,3-a]pyridin-7-yl)benzamide] | 100 to 250 | 100 to 250 | < 25 | – | –
Cc1c(F)cc(C(=O)Nc2ccnn2C)cc1-c1ccn2c(-c3c(F)cccc3Cl)nnc2c1 [Example 61, 3-(3-(2-chloro-6-fluorophenyl)[1,2,4]triazolo[4,3-a]pyridin-7-yl)-5-fluoro-4-methyl-N-(1-methyl-1H-pyrazol-5-yl)benzamide] | 25 to 100 | 100 to 250 | 25 to 100 | – | –
Cc1c(F)cc(C(=O)NC2CC2)cc1-c1ccn2c(-c3c(F)cccc3F)nnc2c1 [Example 64, N-cyclopropyl-3-(3-(2,6-difluorophenyl)[1,2,4]triazolo[4,3-a]pyridin-7-yl)-5-fluoro-4-methylbenzamide] | < 25 | < 25 | < 25 | – | –
Cc1cc(F)c(C(=O)NC2CC2)cc1-c1ccn2c(-c3ccccc3Cl)nnc2c1 [Example 70, 5-(3-(2-chlorophenyl)[1,2,4]triazolo[4,3-a]pyridin-7-yl)-N-cyclopropyl-2-fluoro-4-methylbenzamide] | 25 to 100 | 100 to 250 | < 25 | – | –
Cc1c(F)cc(C(=O)NC2CC2)cc1-c1ccn2c(-c3ccccc3C(F)(F)F)nnc2c1 [Example 74, N-cyclopropyl-3-fluoro-4-methyl-5-(3-(2-(trifluoromethyl)phenyl)[1,2,4]triazolo[4,3-a]pyridin-7-yl)benzamide] | < 25 | < 25 | < 25 | – | –
Cc1ccc(C(=O)NC2CC2)cc1-c1ccn2c(-c3ccccc3Cl)nnc2c1C [Example 78, 3-(3-(2-chlorophenyl)-8-methyl[1,2,4]triazolo[4,3-a]pyridin-7-yl)-N-cyclopropyl-4-methylbenzamide] | 25 to 100 | 250 to 1000 | 25 to 100 | – | –
Cc1c(F)cc(C(=O)NC2CC2)cc1-c1ccn2c(-c3ccncc3Cl)nnc2c1 [Example 79, 3-(3-(3-chloro-4-pyridinyl)[1,2,4]triazolo[4,3-a]pyridin-7-yl)-N-cyclopropyl-5-fluoro-4-methylbenzamide] | < 25 | 25 to 100 | < 25 | – | –
Cc1ccccc1-c1nnc2cc(-c3cc(C(=O)NC4CC4)cc(F)c3C)ccn12 [Example 82, N-cyclopropyl-3-fluoro-4-methyl-5-(3-(2-methylphenyl)[1,2,4]triazolo[4,3-a]pyridin-7-yl)benzamide] | < 25 | < 25 | < 25 | – | –
Cc1cccc(F)c1-c1nnc2cc(-c3cc(C(=O)NC4CC4)cc(F)c3C)ccn12 [Example 83, N-cyclopropyl-3-fluoro-5-(3-(2-fluoro-6-methylphenyl)[1,2,4]triazolo[4,3-a]pyridin-7-yl)-4-methylbenzamide] | < 25 | < 25 | < 25 | – | –
Cc1cc(Cl)c(C(=O)NC2CC2)cc1-c1ccn2c(-c3ccccc3Cl)nnc2c1 [Example 90, 2-chloro-5-(3-(2-chlorophenyl)[1,2,4]triazolo[4,3-a]pyridin-7-yl)-N-cyclopropyl-4-methylbenzamide] | 1000 to 5000 | > 5000 | 250 to 1000 | – | –
Cc1cccc(Cl)c1-c1nnc2cc(-c3cc(C(=O)NC4CC4)cc(F)c3C)ccn12 [Example 91, 3-(3-(2-chloro-6-methylphenyl)[1,2,4]triazolo[4,3-a]pyridin-7-yl)-N-cyclopropyl-5-fluoro-4-methylbenzamide] | < 25 | < 25 | < 25 | – | –
Cc1c(F)cc(C(=O)Nc2ccon2)cc1-c1ccn2c(-c3c(F)cccc3F)nnc2c1 [Example 92, 3-(3-(2,6-difluorophenyl)[1,2,4]triazolo[4,3-a]pyridin-7-yl)-5-fluoro-N-3-isoxazolyl-4-methylbenzamide] | < 25 | < 25 | < 25 | – | –

The next lines start with the values.

IC50 (THP1 cells; Homo sapiens, THP-1) [nM] | IC50 (monocytes; Homo sapiens, Monocyte) [nM] | IC50 (p38α) [nM] | IC50 (THP1 cells; read-out: THP-1 cell assay) [nM] | IC50 (monocytes) [nM] | Compound
< 25 | < 25 | < 25 | – | – | Cc1ccc(C(=O)NC2CC2)cc1-c1ccn2c(-c3c(Cl)cccc3Cl)nnc2c1 [Example 62, N-cyclopropyl-3-(3-(2,6-dichlorophenyl)[1,2,4]triazolo[4,3-a]pyridin-7-yl)-4-methylbenzamide]
< 25 | < 25 | < 25 | – | – | Cc1ccc(C(=O)NC2CC2)cc1-c1ccn2c(-c3c(F)cccc3Cl)nnc2c1 [Example 63, 3-(3-(2-chloro-6-fluorophenyl)[1,2,4]triazolo[4,3-a]pyridin-7-yl)-N-cyclopropyl-4-methylbenzamide]
250 to 1000 | 100 to 250 | < 25 | – | – | Cc1ccc(C(=O)NC2CC2)cc1-c1ccn2c(Nc3ccccc3)nnc2c1 [Example 66, N-cyclopropyl-4-methyl-3-(3-(phenylamino)[1,2,4]triazolo[4,3-a]pyridin-7-yl)benzamide]
< 25 | 25 to 100 | < 25 | – | – | Cc1ccc(C(=O)NC2CC2)cc1-c1ccn2c(-c3c(F)cccc3C(F)(F)F)nnc2c1 [Example 69, N-cyclopropyl-3-(3-(2-fluoro-6-(trifluoromethyl)phenyl)[1,2,4]triazolo[4,3-a]pyridin-7-yl)-4-methylbenzamide]
25 to 100 | 250 to 1000 | < 25 | – | – | Cc1ccc(C(=O)NC2CC2)cc1-c1ccn2c(N(C)c3ccccc3)nnc2c1 [Example 75, N-cyclopropyl-4-methyl-3-(3-(methyl(phenyl)amino)[1,2,4]triazolo[4,3-a]pyridin-7-yl)benzamide]
< 25 | 25 to 100 | < 25 | – | – | Cc1ccc(C(=O)NC2CC2)cc1-c1ccn2c(-c3ccncc3Cl)nnc2c1 [Example 80, 3-(3-(3-chloro-4-pyridinyl)[1,2,4]triazolo[4,3-a]pyridin-7-yl)-N-cyclopropyl-4-methylbenzamide]
< 25 | < 25 | < 25 | – | – | Cc1ccc(C(=O)NC2CC2)cc1-c1ccn2c(-c3c(C)cccc3Cl)nnc2c1 [Example 81, 3-(3-(2-chloro-6-methylphenyl)[1,2,4]triazolo[4,3-a]pyridin-7-yl)-N-cyclopropyl-4-methylbenzamide]
100 to 250 | 250 to 1000 | < 25 | – | – | Cc1ccc(C(=O)NC2CC2)cc1-c1ccn2c(Cc3ccccc3)nnc2c1 [Example 89, N-cyclopropyl-4-methyl-3-(3-(phenylmethyl)[1,2,4]triazolo[4,3-a]pyridin-7-yl)benzamide]
25 to 100 | 100 to 250 | < 25 | – | – | Cc1ccc(C(=O)NC2CC2)cc1-c1ccn2c(C3CC3)nnc2c1 [Example 93, N-cyclopropyl-3-(3-cyclopropyl[1,2,4]triazolo[4,3-a]pyridin-7-yl)-4-methylbenzamide]
25 to 100 | 100 to 250 | < 25 | – | – | Cc1ccc(C(=O)NC2CC2)cc1-c1ccn2c(C3CCCCC3)nnc2c1 [Example 94, 3-(3-cyclohexyl[1,2,4]triazolo[4,3-a]pyridin-7-yl)-N-cyclopropyl-4-methylbenzamide]
< 25 | 25 to 100 | < 25 | – | – | Cc1ccc(C(=O)NC2CC2)cc1-c1ccn2c(C3CCCC3)nnc2c1 [Example 95, 3-(3-cyclopentyl[1,2,4]triazolo[4,3-a]pyridin-7-yl)-N-cyclopropyl-4-methylbenzamide]
25 to 100 | 250 to 1000 | < 25 | – | – | Cc1ccc(C(=O)NC2CC2)cc1-c1ccn2c(N3CCCC3)nnc2c1 [Example 96, N-cyclopropyl-4-methyl-3-(3-(1-pyrrolidinyl)[1,2,4]triazolo[4,3-a]pyridin-7-yl)benzamide]
25 to 100 | 100 to 250 | < 25 | – | – | Cc1ccc(C(=O)NC2CC2)cc1-c1ccn2c(C3CCOCC3)nnc2c1 [Example 97, N-cyclopropyl-4-methyl-3-(3-(tetrahydro-2H-pyran-4-yl)[1,2,4]triazolo[4,3-a]pyridin-7-yl)benzamide]
– | – | < 25 | 25 to 100 | 100 to 250 | Cc1ccc(C(=O)NC2CC2)cc1-c1ccn2c(C34CC5CC(CC(C5)C3)C4)nnc2c1 [Example 98, N-cyclopropyl-4-methyl-3-(3-((3s,5s,7s)-tricyclo[3.3.1.1~3,7~]dec-1-yl)[1,2,4]triazolo[4,3-a]pyridin-7-yl)benzamide]
25 to 100 | 250 to 1000 | < 25 | – | – | Cc1ccc(C(=O)NC2CC2)cc1-c1ccn2c(N3CCCCC3)nnc2c1 [Example 99, N-cyclopropyl-4-methyl-3-(3-(1-piperidinyl)[1,2,4]triazolo[4,3-a]pyridin-7-yl)benzamide]
100 to 250 | 100 to 250 | 25 to 100 | – | – | Cc1ccc(C(=O)NC2CC2)cc1-c1ccn2c(N3CCOCC3)nnc2c1 [Example 101, N-cyclopropyl-4-methyl-3-(3-(4-morpholinyl)[1,2,4]triazolo[4,3-a]pyridin-7-yl)benzamide]
